# Patent US20190183811A1, “COMPOSITION CONTAINING SQUALENE FOR IMPROVING MUSCLE FUNCTION AND PREVENTING MUSCLE DAMAGE” (AAT COSTECH CO., LTD., priority 2016, published 2019)
# Key:
# [1] = system: atrogin-1 mRNA in C2C12 muscle cells; experiment: RT-PCR of atrogin-1 mRNA expression in C2C12 muscle cells treated with squalene; assay type: cell-based; conditions: cultured 12 hours, FIG. 3
# Description: (§1) Thus, in order to identify whether the produced muscle proteins can also be protected against degradation through degradation-inhibitory activity of squalene, mRNA transcriptional expression levels of atrogin-1 and MuRF1 which are muscle-degrading proteins were checked.
# (§2) Specifically, C2C12 muscle cells were treated with squalene and cultured for 12 hours while inducing differentiation, by performing the same method as in the above <Example 1>. The resulting cells were obtained. Total RNA was isolated from the obtained cells using a TRIzol reagent (Invitrogen, Carlsbad, Calif., USA). The isolated total RNA was quantitated using NanoDrop 1000 (Thermo Fisher Scientific Inc., Waltham, Mass., USA). The quantified 16 μL of RNA was synthesized into cDNA using Reverse Transcriptase Premix (ELPISBIOTECH. INC) and a PCR machine (Gene Amp PCR System 2700; Applied Biosystems, Foster City, Calif., USA) under a condition at 42° C. for 55 minutes and 70° C. for 15 minutes. 3 μL of cDNA out of the synthesized cDNA, specific primers (BIONEER CORPORATION, Daejeon, Korea) as shown in the following [Table 1], and a PCR premix (ELPISBIOTECH. INC) were mixed, and PCR was performed by repeating 30 cycles of 95° C. for 30 seconds, 60° C. for 1 minute, and 72° C. for 1 minute. […]
# [2] = system: immobilized rats (muscle atrophy and muscle damage); experiment: Muscular strength (muscular strength meter) after hindlimb immobilization; assay type: in vivo, rats (C57BL/6J); conditions: squalene 100 and 200 mg/kg/day oral for one week after one week immobilization; vs immobilized group, **P<0.01; FIG. 4
# Description: (§3) Seven-week-old male rats (C57BL/6J; DBL Co., Ltd.) were purchased as experimental animals, and experiments were conducted. All animals were kept at the Yonsei Laboratory Animal Research Center (YLARC, Seoul, Korea), and an environment under which the animals were kept was maintained at a temperature of 23±2° C. and a relative humidity of 55±10%. Before starting experiments, a total of 28 rats were randomly assigned to 7 rats per group, and the groups were divided into a normal group, an immobilized group, 100 mg/kg/day of squalene-administered group (squalene 100-administered group), and 200 mg/kg/day of squalene-administered group (squalene 200-administered group). After one week of adaptation, anesthesia was induced by intraperitoneal injection of 325 mg/kg of tribromoethanol (Sigma-Aldrich). […] One week later, the staples fixed on the gastrocnemius muscle and the sole were removed and squalene was orally administered at a concentration of 100 mg/kg and 200 mg/kg on a daily basis for one week. The normal group and the immobilized group were orally administered saline instead of squalene. After the oral administration period was completed in the above <Example 4-1>, muscular strength of the rats was measured using a muscular strength meter (Columbus Instruments International, Columbus, Ohio, USA). All forelimbs and hindlimbs of the rat were grasped on a grid. […]
# [3] = system: immobilized rats (muscle atrophy and muscle damage); experiment: Myofiber cross-sectional area in tibialis anterior muscle (H&E staining, Image J); assay type: in vivo, rats (C57BL/6J); conditions: squalene 100 and 200 mg/kg/day oral for one week; vs immobilized group, **P<0.01; FIG. 6
# Description: Seven-week-old male rats (C57BL/6J; DBL Co., Ltd.) were purchased as experimental animals, and experiments were conducted. All animals were kept at the Yonsei Laboratory Animal Research Center (YLARC, Seoul, Korea), and an environment under which the animals were kept was maintained at a temperature of 23±2° C. and a relative humidity of 55±10%. Before starting experiments, a total of 28 rats were randomly assigned to 7 rats per group, and the groups were divided into a normal group, an immobilized group, 100 mg/kg/day of squalene-administered group (squalene 100-administered group), and 200 mg/kg/day of squalene-administered group (squalene 200-administered group). After one week of adaptation, anesthesia was induced by intraperitoneal injection of 325 mg/kg of tribromoethanol (Sigma-Aldrich). […] One week later, the staples fixed on the gastrocnemius muscle and the sole were removed and squalene was orally administered at a concentration of 100 mg/kg and 200 mg/kg on a daily basis for one week. The normal group and the immobilized group were orally administered saline instead of squalene. […] In addition, myofibers were photographed and a cross-sectional area thereof was measured with an Image J program (National Institutes of Health, Bethesda, […], USA).
# [4] = system: p-p70S6K in C2C12 muscle cells; experiment: Western blot of p-p70S6K protein in C2C12 muscle cells treated with squalene; assay type: cell-based; conditions: FIG. 2
# Description: Thus, in order to identify this fact in a more specific manner, a phosphorylation-induced activity level of p70S6K protein, which is known to be involved in an mRNA translation process in muscle cells, was checked, instead of an expression level of p-mTOR. Specifically, C2C12 muscle cells were treated with squalene and cultured while inducing differentiation, by performing the same method as in the above <Example 1>. The resulting cells were obtained and subjected to western blotting. A p-p70S6K antibody (Santa Cruz Biotechnology, Inc., Santa Cruz, Calif., USA) was used as a primary antibody for western blotting.
# [5] = system: MuRF1 mRNA in C2C12 muscle cells; experiment: RT-PCR of MuRF1 mRNA expression in C2C12 muscle cells treated with squalene; assay type: cell-based; conditions: cultured 12 hours, FIG. 3
# Description: as §1, §2
# [6] = system: p-mTOR in C2C12 muscle cells; experiment: Western blot of phosphorylated mTOR (p-mTOR) in C2C12 muscle cells treated with squalene; assay type: cell-based; conditions: FIG. 1
# Description: In a case where mTOR protein is activated by phosphorylation, expression levels of major proteins in muscle cells which are expressed upon differentiation and are associated with muscle protein synthesis and muscle mass increase in a PI3K/Akt signaling pathway were checked. The obtained cells were lysed with an NP-40 buffer solution (ELPISBIOTECH. INC, Daejeon, Korea) containing a protease inhibitor cocktail (Sigma-Aldrich), and centrifuged at 13,000 rpm for 10 minutes to obtain a cell lysate which is a supernatant. A protein concentration in the supernatant was quantitated by Bradford. Then, a predetermined concentration of the proteins was heated for 5 minutes and separated by SDS-PAGE electrophoresis. The separated proteins were transferred to a nitrocellulose membrane. Then, a p-mTOR primary antibody (Cell Signaling Technology, Inc., Beverly, Mass., USA) was diluted with 2.5% bovine serum albumin (BSA; BioWORLD, Dublin, Ohio, USA) at a ratio of 1:1,000, and the resultant was allowed to react with the proteins, which had been transferred to the nitrocellulose membrane, at room temperature for 20 hours. […] Protein bands detected through antibody binding were developed using the ECL Western Blot Detection Reagent (Amersham, Tokyo, Japan), and the developed protein bands were identified using a G:BOX EF imaging system (Syngene, Cambridge, UK).
# [7] = system: immobilized rats (muscle atrophy and muscle damage); experiment: Weight of tibialis anterior muscle of right hindlimb after immobilization; assay type: in vivo, rats (C57BL/6J); conditions: muscle not damaged by stapler, squalene 100 and 200 mg/kg/day oral for one week, vs immobilized group, *P<0.05, FIG. 5
# Description: as §3, with “measurement of muscular strength” for “oral administration period was completed”, “4-2> was completed, the experimental animals were anesthetized by intraperitoneal injection” for “4-1>, muscular strength”, “325 mg/kg of tribromoethanol (Sigma-Aldrich),” for “the rats was measured using a muscular strength meter (Columbus Instruments International, Columbus, Ohio, USA). All forelimbs”, “then sacrificed by cardiac puncture.” for “hindlimbs of the rat were grasped on a grid.”
# [8] = system: immobilized rats (muscle atrophy and muscle damage); experiment: Weight of muscle physically directly damaged by the stapler (regeneration of damaged muscles); assay type: in vivo, rats (C57BL/6J); conditions: right hindlimb, squalene 100 and 200 mg/kg/day oral for one week, vs immobilized group, **P<0.01, FIG. 7
# Description: Seven-week-old male rats (C57BL/6J; DBL Co., Ltd.) were purchased as experimental animals, and experiments were conducted. All animals were kept at the Yonsei Laboratory Animal Research Center (YLARC, Seoul, Korea), and an environment under which the animals were kept was maintained at a temperature of 23±2° C. and a relative humidity of 55±10%. Before starting experiments, a total of 28 rats were randomly assigned to 7 rats per group, and the groups were divided into a normal group, an immobilized group, 100 mg/kg/day of squalene-administered group (squalene 100-administered group), and 200 mg/kg/day of squalene-administered group (squalene 200-administered group). After one week of adaptation, anesthesia was induced by intraperitoneal injection of 325 mg/kg of tribromoethanol (Sigma-Aldrich). […] One week later, the staples fixed on the gastrocnemius muscle and the sole were removed and squalene was orally administered at a concentration of 100 mg/kg and 200 mg/kg on a daily basis for one week. The normal group and the immobilized group were orally administered saline instead of squalene. In the rat from which the tibialis anterior muscle of the right hindlimb was extracted in the above <Example 4-3>, a […] of the right hind limb, which was physically directly damaged by the stapler, was extracted and weighed.
smiles,measurement,setting,value
"CC(C)=CCC/C(C)=C/CC/C(C)=C/CC/C=C(\C)CC/C=C(\C)CCC=C(C)C [squalene, (6E,10E,14E,18E)-2,6,10,15,19,23-hexamethyltetracosa-2,6,10,14,18,22-hexaene]",mRNA expression level of atrogin-1,[1],decreased
same,muscular strength,[2],restored in a concentration-dependent manner
same,myofiber cross-sectional area in the tibialis anterior muscle,[3],increased in a concentration-dependent manner
same,expression level of the p-p70S6K protein,[4],increased
same,mRNA expression level of MuRF1,[5],decreased
same,expression level of phosphorylated mTOR (p-mTOR),[6],increased
same,weight of the tibialis anterior muscle,[7],increased in a concentration-dependent manner
same,weight of the tibialis anterior muscle physically directly damaged by the stapler,[8],increased in a concentration-dependent manner
